# Results: US20260216166A1, “COMPOUND FOR TREATMENT OF ERECTILE DYSFUNCTION” (Initiator Pharma A/S, priority 2023, published 2026)
# “Also recorded” adds a separate entry of the source. Like-named read-outs stand apart in the source and are kept apart here.
# Assays:
# [1] = system: male subjects with erectile dysfunction (ED); assay: IIEF-15 questionnaire after repeat single oral doses in male subjects with ED; format: in vivo, human
# Text: The international index of erectile function (IIEF-15) questionnaire is a validated, multi-dimensional, self-administered investigation that has been found useful in the clinical assessment of erectile dysfunction and treatment outcomes in clinical trials. A score of 0-5 is awarded to each of the 15 questions that examine the main domains of male sexual function: erectile function, orgasmic function, sexual desire and intercourse satisfaction.
# 130 subjects were divided into 3 groups upon which the study was conducted in parallel. Each subject was dosed on four occasions with either 5 mg IP2015, 10 mg IP2015 or matched placebo. In each group, subjects were randomised evenly to each of the three study treatments and received the same treatment at each visit.
# The study lasted approximately 8 weeks and consisted of the following: • A screening visit (up to 21 days prior to the baseline visit) • A baseline visit (Day −7). • Outpatient visits on Week 1 (Day 1), Week 2, Week 3 and Week 4 • A follow-up visit a minimum of 7 to 10 days after their final dose.
# On Day-7, and at the Week 1 (Day 1), Week 2, Week 3, Week 4 and Follow-up visits, all groups were asked to complete the IIEF-15 questionnaire. Group 2 was asked to complete a Visual Stimulation Assessment using a RigiScan Plus Monitor on Day-7, Week 1 (Day 1) and Week 4. Group 2 was also required to provide blood samples for pharmacokinetic assessment on Week 1 (Day 1) and Week 4. Group 3 was required to provide semen samples on Day-7 and Week 4.
# There were three potential study treatments of 5 mg IP2015, 10 mg IP2015 or matched placebo. In each group, subjects were randomised evenly to each of the three study treatments and received the same treatment on each visit. IP2015 or matched placebo was administered once in the morning of Week 1 (Day 1), Week 2, Week 3, and Week 4 as an oral solution in the fasted state. The dose was taken with 240 ml of water at room temperature. Subjects had fasted 2 hours prior to dosing until 4 hours postdose. Water was allowed ad libitum except for 1 hour before and 1 hour after dosing.
# Efficacy was assessed through the International Index of Erectile Function (IIEF)-15 questionnaire. The change from baseline in responses to questions of the IIEF-15 questionnaire, including questions regarding erectile function, orgasmic function, sexual desire, intercourse satisfaction and overall satisfaction domain scores, was determined at different time points of the study. RigiScan assessments during the stimulus assessment, and sperm count and motility by semen sample collection was used for efficacy evaluation. Safety was assessed through AE reporting, 12-lead ECG, vital signs, physical examinations and clinical laboratory evaluations. Pharmacokinetics was assessed by blood sampling.
# The results are means±SE. The statistical differences were performed with Mixed Model Repeated Measures (MMRM).
# [2] = system: rat corpus cavernosum strips; assay: Isometric tension of isolated rat corpus cavernosum strips
# Protocol: For functional studies in corpus cavernosum strips, the penis was removed by cutting the crura corpora cavernosa at the point of adhesion to the lower pubic bone, and the corpora cavernosa were then dissected free. The penis was submerged immediately in ice-cold (4° C.) PSS. The tunica albuginea was carefully opened from its proximal extremity of the corpus cavernosum towards the penile shaft and the erectile tissue within the corpus cavernosum was microsurgically dissected free. Change in isometric tension of corpus cavernosum strips (0.5×0.5×3 mm) were investigated in a tissue organ bath system (750TOBS, Danish Myotechnology, Aarhus, Denmark). Silk ligatures were applied at both ends of the strip preparations, which were then suspended between two L-formed metal prongs in thermostatically controlled organ baths (5 ml, 37° C.) containing PSS aerated with a mixture of 5% CO2 in air (pH 7.4). The bath fluid was routinely changed every 20 min and replaced with fresh PSS, also kept at 37° C. During an equilibration period of 60 min, tension was adjusted until a mean stable tension of 1.2 mN was obtained, as described earlier.
# To test the contractility of the preparations, they were exposed to a potassium physiological saline solution (KPSS) of 125 mM and phenylephrine (10^-6 M), after each contraction acetylcholine was administrated to check endothelium-dependent relaxations.
# To investigate the effect of IP2015 on corpus cavernosum strips, the drug (10 9-3×10^-4 M) was administered either in preparations at baseline tension or contracted with phenylephrine (10^-6 M) in the absence or presence of L-NOARG (10 4 M), a NO synthase inhibitor, sildenafil (10^-7 M), a PDE5 inhibitor, a dopamine D1 receptor antagonist, SCH23390, and a dopamine D2 receptor antagonist, clozapine (10^-6 M). The effect of vehicle was also investigated.
# [3] = Phase II single oral dose pharmacokinetics in male patients with ED; format: in vivo; conditions: human, plasma, 10 mg single oral dose; for Tmax: male, po, 10 mg
# Protocol: The study was an exploratory Phase II, randomised, placebo-controlled, double-blind, crossover study, investigating the effects of a single oral dose of IP2015 on erectile function in males with ED. A dose level of 10 mg was selected. Patients were enrolled into two cohorts. Both cohorts participated in two periods (Period 1 and Period 2) and received a single dose of IP2015 and a single dose of placebo.
# The IP2015 at a dose of 10 mg or matched placebo was administered once on the morning of Day 1 (in Period 1 and Period 2) as an oral solution in the fasted state. The dose was taken with 240 ml of water at room temperature. Subjects/patients were fasted overnight prior to dosing until 4 hours postdose. Water was allowed ad libitum except for 1 hour before and 1 hour after dosing.
# The study also evaluated the plasma PK concentrations and parameters including but not limited to; AUC0-t, AUC0-∞, Cmax, tmax and T½ in male patients with ED. Blood samples for the determination of plasma concentrations of IP2015 were collected at predose, and 1, 4, 8 (post-stimulus challenge), and 24 hours postdose in each treatment period. The exploratory endpoint was the possible relationship between plasma PK levels and PD response as measured by RigiScan data.
# Plasma samples for the determination of concentrations of IP2015 were analysed by using a validated liquid chromatography-tandem mass spectrometry method. The RigiScan Plus Monitor was used for efficacy during the stimulus challenge.
# Safety parameters were listed and summarised using descriptive statistics. Pharmacokinetic parameter estimates were calculated using noncompartmental methods. Pharmacokinetic data were listed for each subject/patient and summarised by descriptive statistics.
compound,measurement,setting,value
"COc1cc2ccc(OC3CC4CCC(C3)N4)cc2oc1=O (stereo not shown) [IP2015, 7-[(8-azabicyclo[3.2.1]octan-3-yl)oxy]-3-methoxy-chromen-2-one]",efficacy in treating erectile dysfunction,"[1]; 5 mg individual doses, human subjects, compared to placebo",effective in the treatment of erectile dysfunction; also recorded: effective in treating erectile dysfunction
same,overall response to questions of IIEF-15 versus baseline,"[1]; 5 mg, at follow-up, p=0.0046",significant
same,overall response to questions of IIEF-15 versus placebo,"[1]; 5 mg, at follow-up, p=0.07",tendency
same,IIEF-15 overall score versus baseline,"[1]; 5 mg, p=0.0032",the same was the case
same,"IIEF-15 Q4 (ability to maintain erection), overall score versus baseline","[1]; 5 mg, p=0.056",tendency to difference
same,IIEF-15 overall score versus placebo,"[1]; 5 mg, p=0.10",tendency
same,"IIEF-15 Q4, overall score compared to placebo","[1]; 5 mg, p=0.44",no difference
same,"IIEF-15 Q3, overall score","[1]; 5 mg, versus placebo (p=0.07) and versus baseline (p=0.07)",tendency to difference
same,"IIEF-15 Q3 (ability to penetrate), change from baseline","[1]; 5 mg, week 3, versus placebo (p=0.034) and versus baseline (p=0.046)",significant effect
same,overall IIEF-15 score change,"[1]; low dose of IP2015, clinically significant",2
same,relaxation of corpus cavernosum strips,"[2]; added at basal tension, increasing concentrations",concentration-dependently induced relaxation; also recorded: induced concentration-dependent relaxations; also recorded: induces relaxations
same,IP2015 relaxation in preparations with and without endothelium,"[2]; corpus cavernosum strips, n=5",observed in preparations with endothelium but not in preparations without endothelium
same,Cmax,[3],15.7 ng/mL
same,AUC(0-t),[3]; read-out: mean AUC0-t,287 ng·h/mL
same,Tmax,[3]; read-out: median tmax,4 h
same,Tmax,[3]; read-out: tmax range,1 to 8.53 h
